{"source": "patent US20220072019A1", "about": "“INHIBITORS OF SARM1 IN COMBINATION WITH NAD+ OR A NAD+ PRECURSOR” (Disarm Therapeutics, Inc., priority 2018, published 2022)", "system": "DRG axons", "experiment": "Axon degeneration assay (axotomy of mouse DRG drop cultures)", "type": "cell-based", "description": "Mouse dorsal root ganglion neurons (DRGs) were dissected out of E12.5 CD1 mice (50 ganglia per embryo) and incubated with 0.5% Trypsin solution containing 0.02% EDTA (Gibco) at 37° C. for 15 min. The cells were then triturated by gentle pipetting and washed 3 times with DRG growth medium (Neurobasal medium (Gibco) containing 2% B27 (Invitrogen), 100 ng/ml 2.5S NGF (Harland Bioproducts), […] 5-fluoro-2′deoxyuridine (Sigma), penicillin, and streptomycin). Cells were suspended in the DRG growth medium. DRG drop cultures were created by spotting 5000 cells/well into the center of each well of a 96-well tissue culture plate coated with poly-D-Lysine (0.1 mg/ml; Sigma) and laminin ([…]; Invitrogen). Cells were allowed to adhere to the plates in a humidified tissue culture incubator (5% CO2) for 15 min and then DRG growth medium was gently added ([…]).\nTo study the axonal protective effects of combining NR supplementation with a SARM1 inhibitor, 6 day-old mouse DRG drop cultures were preincubated with 100 μM NR for 24 hours before axotomy. 2 hours prior to axotomy, DRG cultures were treated with SARM1 inhibitors, in the continued presence of 100 μM NR. Potent SARM1 inhibitors were selected from two classes: isoquinoline and isothiazole SARM1 inhibitors. Isoquinoline SARM1 inhibitors tested included I-26 and I-86, while isothiazole SARM1 inhibitors tested included II-6 and II-32. The SARM1 inhibitors were tested using concentrations ranging from 0.1 to 33 μM.\nA manual axotomy was performed at time 0 by transecting the axons of the DRG neurons with a blade. After axotomy, DRG cultures remained exposed to the to SARM1 inhibitor alone, 100 μM NR alone, or the combination of SARM1 inhibitor and NR. At either 16 or 24 hours, DRG cultures were fixed in a buffered solution containing 1% PFA and sucrose and stored at 4° C. prior to imaging. Bright-field images of DRG axons and cell bodies were collected using the 20× water immersion lens of a Phenix automated confocal microscope (PerkinElmer) and quantitation of axonal damage was performed using in-house developed scripts (Acapella, PerkinElmer). The effect of NR alone in protecting distal axons from fragmentation was determined at a concentration of 100 μM. The effect of combining 100 μM NR with varying concentrations of a SARM1 inhibitor was compared to the individual protective effects of either 100 μM of NR alone or an equivalent concentration of a SARM1 inhibitor alone.", "key": {"[1]": {"settings": "1.1 μM SARM1 inhibitor alone, 24 h post-axotomy"}, "[2]": {"settings": "3.3 μM SARM1 inhibitor alone, 24 h post-axotomy"}, "[3]": {"settings": "3.3 μM SARM1 inhibitor alone, 16 h post-axotomy"}}, "note": "“Also recorded” adds a separate entry of the source."}
{"smiles": "Ic1cccc2cnccc12", "note": "[I-26]", "values": [{"measurement": "axonal protection (degeneration index of DRG axons)", "setting": "[1]", "result": "no statistically significant benefit"}, {"measurement": "axonal protection (degeneration index of DRG axons)", "setting": "[2]", "result": "more protection than with NR alone"}, {"measurement": "axonal protection (degeneration index of DRG axons)", "setting": "SARM1 inhibitor alone, concentration not stated in the sentence (1.1 or 3.3 μM tested), 16 h post-axotomy", "result": "modest amount of axonal protection"}]}
{"smiles": "COc1cc(Br)c2ccncc2c1", "note": "[I-86]", "values": [{"measurement": "axonal protection (degeneration index of DRG axons)", "setting": "1.1 μM SARM1 inhibitor alone, 16 h post-axotomy", "result": "NR alone provided greater protection than 1.1 μM compound I-86 alone"}, {"measurement": "axonal protection (degeneration index of DRG axons)", "setting": "[1]", "result": "less protection than NR alone"}, {"measurement": "axonal protection (degeneration index of DRG axons)", "setting": "[3]", "result": "greater protection than NR alone"}]}
{"smiles": "N#Cc1c(O)nsc1Nc1ccccc1C(F)(F)F", "note": "[II-6]", "values": [{"measurement": "axonal protection (degeneration index of DRG axons)", "setting": "[3]", "result": "stronger protection that NR alone; also recorded: stronger protection than NR alone"}, {"measurement": "axonal protection (degeneration index of DRG axons)", "setting": "[2]", "result": "stronger protection than NR alone"}]}
{"smiles": "COCCn1sc(Nc2ccccc2C(F)(F)F)c(C#N)c1=O", "note": "[II-32]", "values": [{"measurement": "axonal protection (degeneration index of DRG axons)", "setting": "0.11 μM SARM1 inhibitor alone, 16 h post-axotomy", "result": "NR alone provided greater protection than 0.11 μM and 0.33 μM of compound II-32 alone"}, {"measurement": "axonal protection (degeneration index of DRG axons)", "setting": "0.11 μM SARM1 inhibitor alone, 24 h post-axotomy", "result": "NR alone provided greater protection than 0.11 μM and 0.33 μM compound II-32 alone"}, {"measurement": "axonal protection (degeneration index of DRG axons)", "setting": "0.33 μM SARM1 inhibitor alone, 16 h post-axotomy", "result": "NR alone provided greater protection than 0.11 μM and 0.33 μM of compound II-32 alone"}, {"measurement": "axonal protection (degeneration index of DRG axons)", "setting": "0.33 μM SARM1 inhibitor alone, 24 h post-axotomy", "result": "NR alone provided greater protection than 0.11 μM and 0.33 μM compound II-32 alone"}, {"measurement": "axonal protection (degeneration index of DRG axons)", "setting": "1 μM SARM1 inhibitor alone, 16 h post-axotomy", "result": "greater protection than NR alone"}, {"measurement": "axonal protection (degeneration index of DRG axons)", "setting": "1 μM SARM1 inhibitor alone, 24 h post-axotomy", "result": "greater protection than NR alone"}]}
{"smiles": "NC(=O)c1ccc[n+]([C@@H]2O[C@H](CO)[C@@H](O)[C@H]2O)c1", "note": "[NR, 1-(β-D-ribofuranosyl)nicotinamide, reference compound]", "values": [{"measurement": "axonal protection (degeneration index of DRG axons)", "setting": "100 μM NR alone, 16 h post-axotomy", "result": "modest amount of axonal protection"}, {"measurement": "axonal protection (degeneration index of DRG axons)", "setting": "100 μM NR alone, 24 h post-axotomy", "result": "modest level of protection"}]}
